From patent US10294202B2, “Pyrrolidinones as herbicides” (FMC Corporation, priority 2013, dated 2019)
Read-outs that look alike come from different tables or passages of the source.

Experiments:
oilseed rape = assay: Test C pre-/postemergence herbicide test; type: in vivo, Brassica napus; details: for Oilseed Rape plant response rating: scale 0 to 100, 0 is no effect and 100 is complete control
Method in brief: (§1)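 Two application timings ran in parallel with identically formulated test chemicals (non-phytotoxic solvent, surfactant included): spray on seeded loam–sand soil, and spray on emerged plants 2 to 18 cm high. Evaluation at 13 to 15 days compared each species with controls, rated from 0 up to 100.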

waterhemp = assay: Test C pre-/postemergence herbicide test; type: in vivo, Amaranthus rudis; details: for Waterhemp plant response rating: scale 0 to 100, 0 is no effect and 100 is complete control
Method in brief: as §1

foxtail, giant = assay: Test C pre-/postemergence herbicide test; type: in vivo, Setaria faberii
Method in brief: as §1

barnyardgrass [1] = assay: Test A pre-/postemergence herbicide test; type: in vivo, Echinochloa crus-galli; details: for Barnyardgrass plant response rating: Preemergence, visual rating on 0 to 100 scale (0 no effect, 100 complete control)
Method in brief: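 Directed soil spray to seeded pots (preemergence) or spray onto one- to two-leaf seedlings 2–10 cm tall (postemergence); loam/sand substrate throughout. Evaluated visually after about 10 days against untreated plants, 0 = no effect, 100 = complete control.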

barnyardgrass [2] = assay: Test B flooded paddy test; type: in vivo, Echinochloa crus-galli; details: Flood, scale of 0 to 100 where 0 is no effect and 100 is complete control
Method in brief: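 Plants grown to 2-leaf stage; pots flooded 3 cm above soil and compound applied directly into paddy water, depth held throughout. Visual rating against untreated controls after 13 to 15 days in greenhouse, 0 (no effect) to 100 (complete control).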

soybean = assay: Test C pre-/postemergence herbicide test; type: in vivo, Glycine max; details: for Soybean plant response rating: scale 0 to 100, 0 is no effect and 100 is complete control
Method in brief: as §1

[3] = Preemergence, 62 g ai/ha, scale 0 to 100
[4] = Preemergence, 125 g ai/ha, scale 0 to 100 (0 no effect, 100 complete control)
[5] = Preemergence, 31 g ai/ha, scale 0 to 100, 0 is no effect and 100 is complete control
[6] = Postemergence, 125 g ai/ha, 0 to 100 scale, 0 no effect, 100 complete control
[7] = Postemergence, 500 g ai/ha, 0 to 100 scale (0 no effect, 100 complete control)
[8] = preemergence, 500 g ai/ha, 0 to 100 scale (0 no effect, 100 complete control)
[9] = Postemergence, 31 g ai/ha, scale 0 (no effect) to 100 (complete control)
[10] = Postemergence, 62 g ai/ha, scale 0 to 100 (0 no effect, 100 complete control)
[11] = Postemergence, 125 g ai/ha, scale 0 to 100 (0 no effect, 100 complete control)
[12] = Postemergence, 250 g ai/ha, scale 0 to 100 (0 no effect, 100 complete control)
[13] = Postemergence, 16 g ai/ha, scale 0 to 100 (0 no effect, 100 complete control)
[14] = Preemergence, 16 g ai/ha, scale 0 to 100
[15] = Preemergence, 31 g ai/ha, scale 0 to 100 (0 no effect, 100 complete control)

Row | Structure (SMILES) | Foxtail, Giant plant response rating (foxtail, giant; [5]) | Plant response rating, Foxtail, Giant (foxtail, giant; [3]) | Plant response rating, Foxtail, Giant (foxtail, giant; [4]) | Plant response rating (scale of 0 to 100), Foxtail, Giant (foxtail, giant; Preemergence, 250 g ai/ha) | Plant response rating, Barnyardgrass (barnyardgrass [1]; [6]) | Plant response rating, Barnyardgrass (barnyardgrass [1]; [7]) | Barnyardgrass plant response rating (barnyardgrass [1]; 125 g ai/ha) | Plant response rating, Barnyardgrass (barnyardgrass [1]; [8]) | Plant response rating, Barnyardgrass (barnyardgrass [2]; 250 g ai/ha) | Soybean plant response rating (soybean; Preemergence, 31 g ai/ha) | Plant response rating, Soybean (soybean; [3]) | Plant response rating, Soybean (soybean; [4]) | Plant response rating, Foxtail, Giant (foxtail, giant; [9]) | Plant response rating, Foxtail, Giant (foxtail, giant; [10]) | Plant response rating, Foxtail, Giant (foxtail, giant; [11]) | Plant response rating, Foxtail, Giant (foxtail, giant; [12]) | Plant response rating, Soybean (soybean; [9]) | Plant response rating, Soybean (soybean; [10]) | Plant response rating, Soybean (soybean; [11]) | Plant response rating, Soybean (soybean; [12]) | also measured
1 | O=C1NCC(c2ccc(F)c(C(F)(F)F)c2)C1C(=O)Nc1cccc(F)c1F (racemic) [Compound 77] | 90 | 90 | 95 | 100 | 70 | 80 | 80 | 90 | 20 | 0 | 0 | 0 |  |  |  |  |  |  |  |  | Oilseed Rape plant response rating (oilseed rape; Preemergence, 31 g ai/ha): 0; Plant response rating, Oilseed Rape (oilseed rape; [3]): 30; Plant response rating, Oilseed Rape (oilseed rape; [4]): 60; Plant response rating (scale of 0 to 100), Oilseed Rape (oilseed rape; Preemergence, 250 g ai/ha): 85; Waterhemp plant response rating (waterhemp; Preemergence, 31 g ai/ha): 40; Plant response rating, Waterhemp (waterhemp; [3]): 40; Plant response rating, Waterhemp (waterhemp; [4]): 70; Plant response rating (scale of 0 to 100), Waterhemp (waterhemp; Preemergence, 250 g ai/ha): 85; Plant response rating (scale of 0 to 100), Soybean (soybean; Preemergence, 250 g ai/ha): 0
2 | Cc1c(F)cccc1NC(=O)C1C(=O)NCC1c1ccc(F)c(F)c1 (racemic) [Compound 106] |  |  |  |  |  |  |  |  |  |  |  |  | 50 | 35 | 45 | 50 | 0 | 0 | 5 | 5 | Plant response rating, Oilseed Rape (oilseed rape; [9]): 0; Plant response rating, Oilseed Rape (oilseed rape; [10]): 0; Plant response rating, Oilseed Rape (oilseed rape; [11]): 0; Plant response rating, Oilseed Rape (oilseed rape; [12]): 0; Plant response rating, Waterhemp (waterhemp; [9]): 0; Plant response rating, Waterhemp (waterhemp; [10]): 0; Plant response rating, Waterhemp (waterhemp; [11]): 10; Plant response rating, Waterhemp (waterhemp; [12]): 20; Plant response rating, Barnyardgrass (barnyardgrass [1]; Postemergence, 1000 g ai/ha, 0 to 100 scale (0 no effect, 100 complete control)): 90; Plant response rating, Barnyardgrass (barnyardgrass [1]; preemergence, 1000 g ai/ha, 0 to 100 scale (0 no effect, 100 complete control)): 90; Plant response rating, Barnyardgrass (barnyardgrass [2]; 1000 g ai/ha): 60
3 | O=C1NCC(c2cc(F)c(F)c(F)c2)C1C(=O)Nc1cccc(F)c1F (centres unmarked) [Compound 48] |  | 85 | 95 |  | 80 | 90 | 80 | 90 | 40 |  | 10 | 15 | 5 | 20 | 40 |  | 10 | 10 | 10 |  | Plant response rating, Foxtail, Giant (foxtail, giant; [13]): 0; Plant response rating, Foxtail, Giant (foxtail, giant; [14]): 40; Foxtail, Giant plant response rating (foxtail, giant; [15]): 80; Plant response rating, Soybean (soybean; [13]): 5; Plant response rating, Soybean (soybean; [14]): 10
4 | O=C1NCC(c2cc(F)c(F)cc2F)C1C(=O)Nc1cccc(F)c1F (centres unmarked) [Compound 50] |  |  |  |  | 80 | 80 | 30 | 90 | 0 |  |  |  | 0 | 5 | 5 | 10 | 10 | 15 | 15 | 20 | 
5 | O=C1NCC(c2ccc(Cl)c(F)c2)C1C(=O)Nc1cccc(F)c1F (centres unmarked) [Compound 52] |  | 80 | 80 |  | 80 | 80 | 80 | 90 | 55 |  | 10 | 15 | 0 | 0 | 0 | 25 | 0 | 0 | 5 | 5 | Foxtail, Giant plant response rating (foxtail, giant; [15]): 55; Plant response rating, Foxtail, Giant (foxtail, giant; Preemergence, 250 g ai/ha, scale 0 to 100 (0 no effect, 100 complete control)): 85
6 | O=C1NCC(c2ccc(F)c(Cl)c2)C1C(=O)Nc1ccccc1F (centres unmarked) [Compound 60] |  | 85 | 90 |  | 80 | 90 | 80 | 90 | 30 |  | 25 | 25 | 0 | 15 | 30 |  | 0 | 0 | 5 |  | Foxtail, Giant plant response rating (foxtail, giant; [15]): 70
7 | O=C1NCC(c2cccc(OC(F)(F)F)c2)C1C(=O)Nc1ccccc1F (centres unmarked) [Compound 69] | 75 | 85 | 85 | 90 | 70 | 80 | 80 | 90 | 40 | 0 | 0 | 0 |  |  |  |  |  |  |  |  | Plant response rating (scale of 0 to 100), Soybean (soybean; Preemergence, 250 g ai/ha): 0
8 | O=C1NCC(c2ccc(C(F)(F)F)cc2)C1C(=O)Nc1ccccc1F (centres unmarked) [Compound 79, N-(2-fluorophenyl)-2-oxo-4-[4-(trifluoromethyl)phenyl]-3-pyrrolidinecarboxamide] | 80 | 90 | 95 | 98 |  |  | 80 |  | 0 | 0 | 0 | 0 | 15 | 15 | 15 | 15 | 0 | 0 | 10 | 10 | Plant response rating, Oilseed Rape (oilseed rape; [9]): 0; Plant response rating, Oilseed Rape (oilseed rape; [10]): 0; Plant response rating, Oilseed Rape (oilseed rape; [11]): 0; Plant response rating, Oilseed Rape (oilseed rape; [12]): 0; Oilseed Rape plant response rating (oilseed rape; Preemergence, 31 g ai/ha): 0; Plant response rating, Oilseed Rape (oilseed rape; [3]): 5; Plant response rating, Oilseed Rape (oilseed rape; [4]): 70; Plant response rating (scale of 0 to 100), Oilseed Rape (oilseed rape; Preemergence, 250 g ai/ha): 80; Plant response rating, Waterhemp (waterhemp; [9]): 10; Plant response rating, Waterhemp (waterhemp; [10]): 10; Plant response rating, Waterhemp (waterhemp; [11]): 10; Plant response rating, Waterhemp (waterhemp; [12]): 30; Waterhemp plant response rating (waterhemp; Preemergence, 31 g ai/ha): 25; Plant response rating, Waterhemp (waterhemp; [3]): 40; Plant response rating, Waterhemp (waterhemp; [4]): 80; Plant response rating (scale of 0 to 100), Waterhemp (waterhemp; Preemergence, 250 g ai/ha): 85; pest or weed control at 125 g/ha (barnyardgrass [1]; Echinochloa crus-galli, post-emergence, 240 h, Postemergence, 125 g ai/ha, 0 to 100 scale, 0 no effect, 100 complete control, read-out: Plant response rating, Barnyardgrass): 80%; pest or weed control at 500 g/ha (barnyardgrass [1]; Echinochloa crus-galli, post-emergence, 240 h, Postemergence, 500 g ai/ha, 0 to 100 scale (0 no effect, 100 complete control), read-out: Plant response rating, Barnyardgrass): 90%; pest or weed control at 500 g/ha (barnyardgrass [1]; Echinochloa crus-galli, pre-emergence, 240 h, preemergence, 500 g ai/ha, 0 to 100 scale (0 no effect, 100 complete control), read-out: Plant response rating, Barnyardgrass): 90%; Plant response rating (scale of 0 to 100), Soybean (soybean; Preemergence, 250 g ai/ha): 0
